Experimental data taken from ChEMBL document CHEMBL1149699, “Structure-activity relationships of 3,4-dihydro-1H-quinazolin-2-one derivatives as potential CDK5 inhibitors” (Bioorg Med Chem, 2007).

Key:
[1] = molecular target: T1, Cyclin-dependent kinase 5/CDK5 activator 1 (Homo sapiens, UniProt Q00535); experiment: Inhibition of human His-tagged p25/CDK5; assay type: protein-complex assay
[2] = molecular target: T1, Cyclin-dependent kinase 5/CDK5 activator 1; experiment: Inhibition of human CDK5/p25 by HTRF assay; assay type: protein-complex assay
[3] = molecular target: Mitogen-activated protein kinase 14 (Homo sapiens, UniProt Q16539); experiment: Inhibition of human p38 alpha
Mitogen-activated protein kinase 14, sequence (Q16539 whole entry): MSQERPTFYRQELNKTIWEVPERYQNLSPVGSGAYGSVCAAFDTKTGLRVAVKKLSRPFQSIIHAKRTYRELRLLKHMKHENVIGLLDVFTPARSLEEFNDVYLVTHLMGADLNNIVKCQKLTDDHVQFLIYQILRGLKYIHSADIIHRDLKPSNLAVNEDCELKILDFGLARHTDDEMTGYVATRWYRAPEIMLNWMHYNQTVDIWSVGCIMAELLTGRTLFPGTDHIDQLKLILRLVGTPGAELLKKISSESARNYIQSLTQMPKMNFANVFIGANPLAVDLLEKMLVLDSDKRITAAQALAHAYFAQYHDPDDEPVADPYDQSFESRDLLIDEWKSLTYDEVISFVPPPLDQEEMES

[4] = molecular target: Mitogen-activated protein kinase 3 (Homo sapiens, UniProt P27361); experiment: Inhibition of human Erk1
Mitogen-activated protein kinase 3, sequence (P27361 whole entry): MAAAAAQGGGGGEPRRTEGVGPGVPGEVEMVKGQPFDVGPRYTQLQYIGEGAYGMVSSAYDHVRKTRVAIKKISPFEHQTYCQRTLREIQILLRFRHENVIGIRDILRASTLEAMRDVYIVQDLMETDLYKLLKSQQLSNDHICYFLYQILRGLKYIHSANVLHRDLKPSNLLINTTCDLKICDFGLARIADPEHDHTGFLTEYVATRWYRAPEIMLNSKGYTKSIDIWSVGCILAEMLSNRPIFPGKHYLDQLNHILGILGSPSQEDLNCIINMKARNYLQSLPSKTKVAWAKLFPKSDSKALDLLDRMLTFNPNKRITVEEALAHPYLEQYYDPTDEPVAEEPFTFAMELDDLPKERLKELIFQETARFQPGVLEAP

[5] = molecular target: Mitogen-activated protein kinase 9 (Homo sapiens, UniProt P45984); experiment: Inhibition of human JNK2
Mitogen-activated protein kinase 9, sequence (P45984 whole entry): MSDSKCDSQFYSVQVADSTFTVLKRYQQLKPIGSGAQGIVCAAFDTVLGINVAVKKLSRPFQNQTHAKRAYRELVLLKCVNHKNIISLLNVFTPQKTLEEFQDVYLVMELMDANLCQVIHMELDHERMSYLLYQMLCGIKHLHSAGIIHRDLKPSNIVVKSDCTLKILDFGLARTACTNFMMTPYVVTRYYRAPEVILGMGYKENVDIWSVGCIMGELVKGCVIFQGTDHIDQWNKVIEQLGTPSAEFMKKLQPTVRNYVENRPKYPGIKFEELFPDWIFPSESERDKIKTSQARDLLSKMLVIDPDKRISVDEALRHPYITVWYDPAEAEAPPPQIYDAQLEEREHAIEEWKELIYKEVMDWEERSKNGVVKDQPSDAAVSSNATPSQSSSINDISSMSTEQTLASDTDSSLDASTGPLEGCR

[6] = Inhibition of human PKA
[7] = Inhibition of human His-tagged cyclin 2/CDK2 by HTRF assay

T1 sequence (Q00535 whole entry): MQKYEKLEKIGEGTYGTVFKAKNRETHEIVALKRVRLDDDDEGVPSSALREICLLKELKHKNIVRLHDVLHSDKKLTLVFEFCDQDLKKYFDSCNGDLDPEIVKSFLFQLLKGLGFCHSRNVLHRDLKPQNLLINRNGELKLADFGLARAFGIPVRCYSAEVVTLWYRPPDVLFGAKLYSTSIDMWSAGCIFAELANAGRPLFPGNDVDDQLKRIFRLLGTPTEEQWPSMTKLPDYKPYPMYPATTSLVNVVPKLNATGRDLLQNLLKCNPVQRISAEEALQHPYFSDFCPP
T1 sequence (Q15078 whole entry, further chain): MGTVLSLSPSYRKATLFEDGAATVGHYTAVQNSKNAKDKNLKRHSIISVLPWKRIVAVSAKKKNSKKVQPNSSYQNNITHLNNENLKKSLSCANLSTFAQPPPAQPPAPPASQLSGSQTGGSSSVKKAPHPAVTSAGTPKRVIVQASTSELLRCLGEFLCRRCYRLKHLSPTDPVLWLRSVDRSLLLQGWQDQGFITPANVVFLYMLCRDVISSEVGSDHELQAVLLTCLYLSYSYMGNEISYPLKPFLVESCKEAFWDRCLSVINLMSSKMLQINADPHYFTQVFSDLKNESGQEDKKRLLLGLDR

| SMILES | IC50 [2] [nM] | other results |
| --- | --- | --- |
| CN1CCN(c2cccc(NC(=O)Nc3csc(-c4ccncc4)n3)n2)CC1 |  | IC50 [1]: 15 nM |
| O=C1Nc2ccccc2CN1c1nc(-c2ccncc2)no1 | > 10000 |  |
| O=C1Nc2cccc(Br)c2CN1c1csc(-c2ccncc2)n1 | 228 |  |
| O=C1Nc2cc(-c3ccccc3)ccc2CN1c1csc(-c2ccncc2)n1 | 113 |  |
| Cc1cccc2c1CN(c1csc(-c3ccncc3)n1)C(=O)N2 | 1260 |  |
| COc1cccc2c1CN(c1csc(-c3ccncc3)n1)C(=O)N2 | 362 |  |
| O=C1Nc2ccc(F)cc2CN1c1csc(-c2ccncc2)n1 | 72 |  |
| CN1CCN(c2ccc3c(c2)CN(c2csc(-c4ccncc4)n2)C(=O)N3)CC1 | 1160 |  |
| O=C1Nc2ccccc2CN1c1nc(-c2cccnc2)cs1 |  | IC50 [1]: 399 nM |
| Cc1ccc2c(c1)CN(c1csc(-c3ccncc3)n1)C(=O)N2 | 165 |  |
| O=C(Nc1ccccn1)Nc1csc(-c2ccncc2)n1 | 192 |  |
| O=c1[nH]c2ccccc2c(=O)n1-c1csc(-c2ccncc2)n1 | > 10000 |  |
| CCc1cc(-c2nc(N3Cc4ccccc4NC3=O)cs2)ccn1 |  | IC50 [1]: 746 nM |
| O=C1Nc2ccccc2CN1c1csc(-c2ccncc2)n1 | 79 | IC50 [3]: > 10000 nM; IC50 [4]: > 10000 nM; IC50 [5]: > 10000 nM; IC50 [1]: 79 nM; IC50 [6]: > 10000 nM; IC50 [7]: 142 nM |
| O=C1Nc2ccccc2CN1c1cccc(-c2ccncc2)c1 | > 10000 |  |
| O=C1Nc2ccccc2CN1c1nc(-c2ccncc2)ns1 | 616 |  |
| O=C1Nc2cccc(Cl)c2CN1c1csc(-c2ccncc2)n1 | 332 |  |
| O=C1Nc2ccccc2CN1c1nc(-c2ccncc2)cs1 | 77 | IC50 [1]: 77 nM |
| O=C(Nc1ccccc1)Nc1csc(-c2ccncc2)n1 | 2990 |  |
| O=C1Nc2cc(Br)ccc2CN1c1csc(-c2ccncc2)n1 | 38 |  |
| CN1CCN(c2cccc3c2CN(c2csc(-c4ccncc4)n2)C(=O)N3)CC1 | 829 |  |
| O=c1[nH]c2ccccc2n1-c1csc(-c2ccncc2)n1 | 1160 |  |
| O=C1Nc2ccccc2CN1c1ccc(-c2ccncc2)s1 | > 10000 |  |
| O=C1Nc2cc(F)ccc2CN1c1csc(-c2ccncc2)n1 | 16 | IC50 [3]: > 10000 nM; IC50 [4]: > 10000 nM; IC50 [5]: > 10000 nM; IC50 [1]: 16 nM; IC50 [6]: > 10000 nM; IC50 [7]: 52 nM |
| O=C1Nc2ccccc2CN1c1nc(-c2ccccn2)cs1 |  | IC50 [1]: 7360 nM |
| O=C1Nc2cccc(CN3CCOCC3)c2CN1c1csc(-c2ccncc2)n1 | 284 |  |
| O=C1Nc2cc(CN3CCOCC3)ccc2CN1c1csc(-c2ccncc2)n1 | 62 | IC50 [3]: > 10000 nM; IC50 [4]: > 10000 nM; IC50 [5]: > 10000 nM; IC50 [1]: 62 nM; IC50 [6]: > 10000 nM; IC50 [7]: 529 nM |
| O=C1Nc2cccc(F)c2CN1c1csc(-c2ccncc2)n1 | 240 |  |
